According to the METLIN SMRT retention time set (Domingo-Almenara et al. 2019):

Test: gradient 5% acetonitrile 3 min, to 50% in 2 min, to 85% in 15 min, held 3 min, 100 µL/min
Conditions: column: Zorbax Extend-C18 2.1 x 50 mm; eluents: water / acetonitrile, 0.1% formic acid
Outline: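 A Zorbax Extend-C18 column (2.1 × 50 mm, 1.8 μm) run at 100 μL/min with water and acetonitrile, both containing 0.1% formic acid, separated mixtures of ~100 pure standards. The HPLC was coupled to a quadrupole time-of-flight mass spectrometer operated in positive and negative ionization mode, with dead and dwell volumes of 40 μL and 900 μL. Each retention time was taken from a computationally picked adduct peak that was then manually inspected.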

Row | RP-LC retention time | Structure (SMILES)
1 | 595 s | N#CCn1nc2n(c1=O)CCN(C(=O)c1cc(C3CC3)[nH]n1)CC2
2 | 695 s | CCOC(=O)COc1cc(-c2ccccc2)nc2ccc(NC(=O)COC)cc12
3 | 624 s | CN(C)c1cncnc1-n1cc(NC(=O)CCc2ccccc2)cn1
4 | 700 s | CCc1cccc(C)c1NC(=O)Cn1nc2n(c1=O)CCCCC2
5 | 586 s | Cc1ccnc(N2CCCC(C(=O)NCCCN3CCCCCC3)C2)n1 (stereo not given)
6 | 777 s | CC(C)C(=O)Nc1ccc(-n2cnc(C(=O)NC(C)c3ccc(F)cc3)c2)nc1 (stereo not given)
7 | 670 s | COc1ccc(OC)c(NC(=O)Cn2ccc3c(=O)n(C)c(=O)n(C)c32)c1
8 | 754 s | COc1ccc(NC(=O)Cn2cnc(-c3ccc(F)cc3)cc2=O)c(OC)c1
9 | 575 s | CCC(=O)N1CCc2c(sc3ncnc(N)c23)C1
10 | 793 s | CC(C)n1ccc(-c2nnc(NC(=O)COc3ccc(Cl)cc3Cl)o2)n1
11 | 735 s | COCC(=O)NC1CCC12CCN(C(=O)CCC1CCCC1)CC2 (stereo not given)
12 | 629 s | O=C(NCC1CC1)c1ccc2nc(-c3ccccc3)cn2c1
13 | 697 s | Cc1nc2c(C(=O)N3CCN(c4ccccn4)CC3)cnn2c(C)c1Cc1ccccc1Cl
14 | 854 s | CC(C)(C)c1ccc(S(=O)(=O)N2CCC3(CC2)NCCN=C3NCc2ccccc2)cc1
15 | 763 s | O=C(Nc1ccc(F)cc1F)N1CCN(Cc2nc3cc(Cl)ccc3o2)CC1
16 | 842 s | CCCN(CC1CCOC1)C(=O)c1ccc(F)c(Cl)c1 (stereo not given)
17 | 812 s | CCn1cc(CCNS(=O)(=O)Cc2ccc(F)cc2Cl)c2cccnc21
18 | 922 s | CCc1nc2c(NC(=O)c3ccc(C)c(C)c3)cccn2n1
19 | 955 s | CC(C)c1ccc(-c2noc(N3CCC(C(=O)N4CCOCC4)CC3)n2)cc1
20 | 791 s | CCCn1cc(CCNS(=O)(=O)c2cccc3nsnc23)c2cccnc21
21 | 734 s | COc1cc(NC(=O)C2CCCN(c3nnc4ccc(Cl)cn34)C2)cc(OC)c1OC (stereo not given)
22 | 858 s | COC(=O)C1=CN(c2ccccc2)c2cc(F)c(F)cc2S1(=O)=O
23 | 656 s | O=C(NCCn1c(CCc2ccccc2)nc2ccccc21)NCc1ccco1

Row | RP-LC retention time | Structure (SMILES)
24 | 1060 s | COc1ccc(OC)c(NC(=O)c2cc(S(=O)(=O)N3CCC(C)CC3)cn2C)c1
25 | 732 s | CCCCN(CCCNc1nc(C(=O)OCC)nc2ccccc12)c1ccccc1
26 | 707 s | CCCCCCC(=O)OC1CC(C)(C)NC(C)(C)C1
27 | 1020 s | Cc1nc(C(=O)Nc2ccc(Cl)cc2F)c(C)o1
28 | 819 s | Cc1ccc2nc3sc(C(=O)NCC4COc5ccccc5O4)cc3c(=O)n2c1 (stereo not given)
29 | 612 s | COc1ccc(Cl)c2c(=O)c3c([nH]c12)CCN(CC(=O)NCc1ccc(F)cc1)C3
30 | 782 s | COc1ccccc1CC(=O)Nc1cccn2c(C3CCC3)nnc12
31 | 863 s | Cc1ccc(-c2cc3c(N4CCCC(C(=O)NCC5CC5)C4)nccn3n2)c(C)c1 (stereo not given)
32 | 854 s | COc1cc([N+](=O)[O-])ccc1NC(=O)CCS(=O)(=O)c1ccc(Cl)cc1
33 | 658 s | COc1ccc(OCc2noc(CNC(=O)CSc3nnnn3C)n2)cc1
34 | 725 s | CN(CC1CCOCC1)C(=O)c1cc(F)cc(F)c1
35 | 873 s | O=C(C1=CN(c2cc(F)cc(F)c2)c2ccccc2S1(=O)=O)N1CCCCC1
36 | 551 s | OC[C@@H]1CN(Cc2ccccn2)C[C@H]1c1nc(-c2cccnc2)no1
37 | 605 s | Cn1c(NC(=O)C2CC2)cc(=O)n(C)c1=O
38 | 972 s | CCOc1ccc(-c2cn3ccn(-c4cc(C)c(Cl)cc4OC)c(=O)c3n2)cc1
39 | 1100 s | O=C(Cn1cccc1-c1nc(-c2ccc3c(c2)OCO3)no1)Nc1ccc(F)c(F)c1
40 | 1170 s | COc1ccc(S(=O)(=O)N2CC(C(=O)NC3CCCCC3)Oc3cc(C)ccc32)cc1 (stereo not given)
41 | 796 s | CC1CC(=O)N(CC(=O)Nc2cccc(Cl)c2)c2ccccc2S1(=O)=O (stereo not given)
42 | 573 s | Cn1c(CNC(=O)c2cccc(N3CCNC(c4ccccc4)C3)n2)nc2ccccc21 (stereo not given)
43 | 600 s | COc1cccc(CN2CCc3nc(N4CCCC4)ncc3C2)c1
44 | 673 s | Cc1ccn2cc(-c3ccc(NC(=O)/C=C/c4ccccc4)cc3)nc2n1
45 | 1010 s | CC(C)c1cc(NCc2ccccn2)n2ncc(-c3ccccc3)c2n1
46 | 805 s | Cc1ccc(NC(=O)Cn2nc(N(C)C)c3ccccc3c2=O)c(F)c1

Row | RP-LC retention time | Structure (SMILES)
47 | 918 s | CCOc1ccccc1-c1nc(Cc2noc(-c3ccncc3)n2)c(C)o1
48 | 1150 s | O=C(CN1CCCCC1c1nc(-c2ccc(F)cc2)no1)NC1CCCCC1 (stereo not given)
49 | 633 s | O=C(c1cn(-c2ccc(S(=O)(=O)N3CCCCC3)cc2)cn1)N1CCN(c2ccccn2)CC1
50 | 999 s | Cc1ccc(-c2nnc(-c3nn(C)c4c3CN(S(=O)(=O)c3cccc(F)c3)CC4)o2)cc1
51 | 1290 s | Fc1ccc(Cl)cc1-c1nc(-c2ccc(-n3cccn3)nc2)no1
52 | 731 s | CC(C)NC(=O)C1CC(=O)N(CCc2c[nH]c3ccc(Cl)cc23)C1 (stereo not given)
53 | 784 s | Cc1cccc(CNC(=O)c2ncn3c2C(=O)N(C2CC2)C(C)(C(=O)NC2CCCC2)C3)c1 (stereo not given)
54 | 640 s | CCN(CC)c1ccc(NC(=O)C2C(=O)NC3(C)CC2c2ccccc2O3)c(C)c1 (stereo not given)
55 | 745 s | COCCN1CCn2cc(S(=O)(=O)Nc3cc(C)cc(C)c3)cc2C1=O
56 | 1020 s | Cc1oc(C(C)C)nc1C(=O)NC1CCCCC1
57 | 879 s | CCc1noc(NC(C)=O)c1-c1ccc(C)c(S(=O)(=O)N2CCCCC2)c1
58 | 797 s | Cc1[nH]c(C(=O)N2CCC(CC(=O)NCc3ccc4c(c3)OCO4)CC2)c(C)c1C(=O)OC(C)C
59 | 1040 s | O=C1CC(c2noc(-c3ccc(OC(F)(F)F)cc3)n2)CN1c1ccc(F)cc1 (stereo not given)
60 | 752 s | COC(=O)c1sc2ccccc2c1S(=O)(=O)N1CCN(c2ccccn2)CC1
61 | 883 s | COc1cc(Cl)c(CC(=O)c2c[nH]c3ccccc23)cc1OC
62 | 749 s | O=S(=O)(c1ccccc1)N1CCC(n2cnnc2-c2ccccc2)CC1
63 | 837 s | Cc1c(-c2noc(C(=O)N3CCN(Cc4ccc5c(c4)OCO5)CC3)n2)oc2c(C)cccc12
64 | 780 s | CCOC(=O)C1CCN(C(=O)Cn2c(=O)c3nnc(C)n3c3ncccc32)CC1
65 | 842 s | COC(=O)c1ccc(N2C=C(C(=O)N3CCCC3)S(=O)(=O)c3ccc(Cl)cc32)cc1
66 | 890 s | CCc1ccc(NC(=O)C2CCN(C(=O)c3ncn4c3COC(c3ccc(F)cc3)C4)CC2)cc1 (stereo not given)
67 | 1040 s | Cc1ccccc1NC(=O)Cc1cccn1-c1ccc(Cl)cc1
68 | 619 s | Nc1n[nH]c(-c2ccccc2)n1
69 | 599 s | CCN1C(=O)NC(c2ccc(Cl)cc2)C2=C1CN(CCC(=O)NCCOC)C2=O (stereo not given)

Row | RP-LC retention time | Structure (SMILES)
70 | 703 s | CCCNc1cc(N2CCCC(CCC(=O)Nc3ccccc3)C2)ncn1 (stereo not given)
71 | 786 s | O=C(CCn1cnc2cc(-c3noc(COc4ccc(Cl)cc4)n3)ccc21)N1CCCC1
72 | 665 s | Cc1cc(=O)n(CC(=O)N2CCCc3ccccc32)c(N2CCCC2)n1
73 | 560 s | CCS(=O)(=O)N1C[C@@H](COC)[C@H](C(N)=O)C1
74 | 629 s | Cc1cc(C)n(-c2ccnc(N3CCC(C(=O)N4CCN(c5ccccn5)CC4)CC3)n2)n1
75 | 578 s | COCCN1C(=O)[C@H]2CN(Cc3cc(OC)c(OC)c(OC)c3)C[C@H]2C1=O
76 | 954 s | Cc1cccc(NC(=O)c2cccn2Cc2noc(C3CC3)n2)c1C
77 | 709 s | O=C(NCc1cc(F)ccc1F)C1CCN(c2cncnc2N2CCCCC2)CC1
78 | 668 s | COc1cc(-c2cccc(Cl)c2)nc2ccc(NC(C)=O)cc12
79 | 608 s | CS(=O)(=O)NCC1CCN(C(=O)c2ccccc2F)CC1
80 | 612 s | Cc1cnc(CC2CCN(C(=O)Nc3ccc4c(c3)OCCO4)C2)n1C1CC1 (stereo not given)
81 | 731 s | COCc1nc(CCNS(=O)(=O)c2ccc(F)cc2)no1
82 | 800 s | CCOC(=O)c1[nH]c(C)c(CCC(=O)N2CCCC(C(=O)N3CCCCCC3)C2)c1C (stereo not given)
83 | 592 s | Cc1nn(C(C)C(=O)NCCCN2CCC(N3CCCCC3)CC2)c(=O)c2c1sc1ccccc12 (stereo not given)
84 | 756 s | CCN1c2cc(F)ccc2C(=O)NC12CCN(C(=O)c1cccc(OC)c1)CC2
85 | 958 s | CN(C)S(=O)(=O)c1ccc(-c2nnc(C(=O)NCc3cccc(C(F)(F)F)c3)o2)cc1
86 | 868 s | Cc1c(Cl)cccc1NC(=O)CCCn1cccc1
87 | 596 s | CCN(CC)CCCNC(=O)Cn1c2ccccc2c2cnn(C)c(=O)c21
88 | 888 s | O=C(c1cnn(-c2ccccc2)n1)N1CCC(c2nnc(-c3ccc(F)cc3)o2)CC1
89 | 1020 s | Cc1ccsc1C(=O)N1CCC(N2C(=O)C(OCC3CC3)C23CCCCC3)CC1 (stereo not given)
90 | 750 s | COc1ccc2c(Sc3ccccc3)c(C(=O)N3CCN(c4ccccn4)CC3)[nH]c2c1
